Values of other authors as cited in patent US20190076366A1, “PHARMACEUTICAL COMPOSITION OF ENTECAVIR AND PROCESS OF MANUFACTURING” (Pharmascience, Inc., priority 2012, published 2019).

Tests used:
[1] = 25°±0.5° C.

pH of the saturated solution in water [1]: 7.9
water solubility (in water): 2400 µg/mL
solubility in purified water (purified water): 2400 µg/mL
SMILES: C=C1C(n2cnc3c(=O)[nH]c(N)nc32)C[C@H](O)[C@H]1CO (stereo partly drawn) [Entecavir, 2-amino-l,9-dihydro-9-[(1S,3R,4S)-4-hydroxy-3-(hydroxymethyl)-2-methylenecyclopentyl]-6H-purin-6-one, monohydrate]
